≈ marks a conversion by molar mass, not a printed value. Residues, ends and D or L forms follow the SMILES beside them. A value given as a limit tells only on which side of the number the result lay.

The source of these data is article PMC11537005, “Antimicrobial activity of novel symmetrical antimicrobial peptides centered on a hydrophilic motif against resistant clinical isolates: in vitro and in vivo analyses” (Microbiology Spectrum, 2024).

Data set [1] relates to MRSA 544. Nature of the data set: microbe, parasite or virus in culture. The data set is classed as cell-based, Staphylococcus aureus. Here is the method: (§1) The peptides' antimicrobial effectiveness was evaluated using a method derived from a previous publication ([59]) and modified for use in this study. Single colonies were seeded and cultured in brain–heart infusion (BHI) medium at 37°C until log-phase growth after adjustment to OD600 = 0.4, which was followed by a 1000-fold dilution with phosphate-buffered saline (PBS). Then, in sterile 96-well plates, twofold serial dilutions of the peptides were added, followed by 50-µL aliquots of the bacterial cell solution. The ultimate concentrations of the antibacterial agents were 0.125–64 μM. Moreover, bacteria and PBS were added to the TSB as positive and negative controls, respectively. The plates were placed in an incubator set at 37°C for 18 hours. The trial was conducted a minimum of three times in sets of three. Successful completion of the experiment was confirmed by observing the turbidity of the positive control and clarity of the negative control culture medium. The MIC was defined as the lowest peptide concentration required to inhibit bacterial growth.
(§2) For MBC analysis, viable cells from all wells with no visible bacterial growth were determined on the BHI agar plates. After 24 hours of cultivation at 37°C, the MBC endpoint was defined as the minimum concentration at which 99.9% of the bacterial population was killed.

Data set [2] relates to MRSA 103. Nature of the data set: microbe, parasite or virus in culture. In kind it is cell-based, Staphylococcus aureus. As to the method:
as §1, §2

Data set [3] has as its system MRSA 544. Kind of data set: microbe, parasite or virus in culture. The data set is classed as cell-based, Staphylococcus aureus.
From the text: (§3) The test strains (Gram-negative: E. coli ATCC 25922, E. coli k88, E. coli k99, E. coli 987, P. aeruginosa ATCC PAO1, Salmonella pullorum ATCC 7731, S. pullorum ATCC 7913, and S. typhimurium ATCC 14028; Gram-positive: S. aureus ATCC 29213, S. aureus ATCC 25923, S. epidermidis ATCC 12228, MRSA ATCC 43300, MRSA 544, MRSA 103, L. rhamnosus ATCC 8014, and L. rhamnosus 1.9021) were maintained at the School of Medicine in the Shenzhen Campus of Sun Yat-sen University. Mouse RBCs were extracted from a specific pathogen-free (SPF) grade mouse.
as §1
This is another data set of the same source.

Data set [4] deals with MRSA 103. Kind of data set: microbe, parasite or virus in culture. In kind it is cell-based, Staphylococcus aureus.
From the text: as §3, §1
The source holds these as a separate data set.

The test system of data set [5] is MRSA 544. Kind of data set: Time-kill kinetics. The data set is classed as cell-based, Staphylococcus aureus. The following applies: 2 × MIC, 4 × MIC and 8 × MIC, 0–7 hours.
Procedure: MRSA 544 was cultured to the logarithmic phase (OD600 = 0.4) and diluted 1000-fold with PBS. […] At various periods (0, 5, 10, 15, 20, 25, 30, and 60 minutes), microbial suspensions were serially diluted (10-, 100-, and 1000-fold) with PBS, and 10 µL of the diluted suspension was plated on tryptic soy agar (TSA) medium. Single colonies of microorganisms were counted after 12-hour incubation at 37°C. The processing steps of vancomycin were the same as those of AMP W5, but with different concentrations (2 × MIC, 4 × MIC, and 8 × MIC) and periods (0, 1, 2, 3, 4, 5, 6, and 7 hours). Average values were calculated and plotted after six repetitions.
The subject of data set [6] is clinically isolated MRSA. Nature of the data set: microbe, parasite or virus in culture.
From the text: as §3
as §1, with “Successful completion of the experiment was confirmed by observing the turbidity of the positive control and clarity of the negative control culture medium.” left out

Data set [7] has as its system standard MRSA strains. The data set is classed as cell-based, Staphylococcus aureus. The following applies: 18 h.
From the text: as §3
as §1, with “Successful completion of the experiment was confirmed by observing the turbidity of the positive control and clarity of the negative control culture medium. The MIC was defined as the lowest peptide concentration required to inhibit bacterial growth.” left out

For data set [8], the system named is BALB/c mice. Nature of the data set: In vivo safety assessment. Details: species or system mouse. As to conditions: 10 mg/kg intravenously, five days after injection. Here is the method:
The in vivo safety assessment and antibacterial activity analysis of the peptides were performed using a murine skin infection model wherein 25 SPF-grade 6- to 8-week-old female mice (BALB/c) were randomly divided into five cages (n = 5 in each cage). The animals were housed individually in ventilated cages (IVC), at a temperature of 20°C–24°C, humidity of 50%–60%, and a 12-hour day–night cycle.
Two groups of five mice were randomly divided and intravenously injected with 100 µL PBS or a 10 mg/kg solution of AMP W5 diluted with PBS. Five days after injection, all animals were euthanized. The weight of each mouse was determined from day 0 to day 5. Blood samples were collected to analyze hepatorenal damage, and an automatic biochemical analyzer was used to measure indicators, including ALT, AST, ALP, BUN, CREA, and LDH. The livers and kidneys of the mice were stained with hematoxylin/eosin (HE) for histological analysis.

The test system of data set [9] is clinically isolated MRSA. The data set is classed as cell-based, Staphylococcus aureus. As to conditions: 18 h. As to the method: as §1, §2
Setting [10] is: Staphylococcus aureus, MRSA, 24 h.
Setting [11] is: Staphylococcus aureus, MRSA, 18 h.
The mark [12] stands for this setting: clinically isolated MRSA strains, 37°C, 18 hours.

With `N=C(N)NCCC[C@H](NC(=O)CNC(=O)[C@H](CO)NC(=O)CNC(=O)[C@H](CCCNC(=N)N)NC(=O)[C@H](CCCNC(=N)N)NC(=O)[C@H](CCCNC(=N)N)NC(=O)[C@H](Cc1c[nH]c2ccccc12)NC(=O)[C@@H](N)Cc1c[nH]c2ccccc12)C(=O)N[C@@H](CCCNC(=N)N)C(=O)N[C@@H](CCCNC(=N)N)C(=O)N[C@@H](Cc1c[nH]c2ccccc12)C(=O)N[C@@H](Cc1c[nH]c2ccccc12)C(N)=O` [W4] (H-WWRRRGSGRRRWW-NH2), the MBC in data set [1] (544, 24 h) was 32 µM (≈ 60.8 µg/mL); in data set [2] (103, 24 h), 32 µM (≈ 60.8 µg/mL). The MIC stood at 16 µM (≈ 30.4 µg/mL) in data set [3] (544, 18 h) and 16 µM (≈ 30.4 µg/mL) in data set [4] (103, 18 h).

With `N=C(N)NCCC[C@H](NC(=O)CNC(=O)[C@H](CO)NC(=O)CNC(=O)[C@H](CCCNC(=N)N)NC(=O)[C@@H](N)Cc1c[nH]c2ccccc12)C(=O)N[C@@H](Cc1c[nH]c2ccccc12)C(N)=O` [W1] (H-WRGSGRW-NH2), the MBC in data set [1] (544, 24 h) was over 64 µM; in [2] (103, 24 h) it was over 64 µM. Moreover, the MIC in data set [3] (544, 18 h) is over 64 µM; in data set [4] (103, 18 h) it was over 64 µM.

For `N=C(N)NCCC[C@H](NC(=O)CNC(=O)[C@H](CO)NC(=O)CNC(=O)[C@H](CCCNC(=N)N)NC(=O)[C@H](CCCNC(=N)N)NC(=O)[C@@H](N)Cc1c[nH]c2ccccc12)C(=O)N[C@@H](CCCNC(=N)N)C(=O)N[C@@H](Cc1c[nH]c2ccccc12)C(N)=O` [W2] (H-WRRGSGRRW-NH2), the MBC was over 64 µM in data set [1] (544, 24 h) and over 64 µM in data set [2] (103, 24 h). The MIC in data set [3] (544, 18 h) is over 64 µM; in data set [4] (103, 18 h), over 64 µM.

Take `N=C(N)NCCC[C@H](NC(=O)CNC(=O)[C@H](CO)NC(=O)CNC(=O)[C@H](CCCNC(=N)N)NC(=O)[C@H](CCCNC(=N)N)NC(=O)[C@H](CCCNC(=N)N)NC(=O)[C@@H](N)Cc1c[nH]c2ccccc12)C(=O)N[C@@H](CCCNC(=N)N)C(=O)N[C@@H](CCCNC(=N)N)C(=O)N[C@@H](Cc1c[nH]c2ccccc12)C(N)=O` [W3] (H-WRRRGSGRRRW-NH2): the MBC in [1] (544, 24 h) was over 64 µM; in data set [2] (103, 24 h) it was over 64 µM. Besides, the MIC in data set [3] (544, 18 h) was over 64 µM; in [4] (103, 18 h), over 64 µM.

With `CN[C@H](CC(C)C)C(=O)N[C@H]1C(=O)N[C@@H](CC(N)=O)C(=O)N[C@H]2C(=O)N[C@H]3C(=O)N[C@H](C(=O)N[C@H](C(=O)O)c4cc(O)cc(O)c4-c4cc3ccc4O)[C@H](O)c3ccc(c(Cl)c3)Oc3cc2cc(c3O[C@@H]2O[C@H](CO)[C@@H](O)[C@H](O)[C@H]2O[C@H]2C[C@](C)(N)[C@H](O)[C@H](C)O2)Oc2ccc(cc2Cl)[C@H]1O` [Vancomycin, reference compound], in data set [5], the “Bactericidal effect in time-kill assay” value is listed as “no signs of complete eradication even after 7 hours”. In addition, the “MBC as multiple of MIC” value in data set [1] (MRSA 544) and in [2] (MRSA 103) was 8 × MIC throughout. In addition, the MBC in data set [1] (setting [10]) and in [2] (setting [10]) was 4 µM (≈ 5.8 µg/mL) each time. The MIC in data set [6] (setting [11]), in data set [3] (setting [11]) and in data set [4] (setting [11]) was 0.5 µM (≈ 0.725 µg/mL) in each case.

As to `CC[C@H](C)[C@H](NC(=O)CN)C(=O)NCC(=O)N[C@@H](C)C(=O)N[C@H](C(=O)N[C@@H](CC(C)C)C(=O)N[C@@H](CCCCN)C(=O)N[C@H](C(=O)N[C@@H](CC(C)C)C(=O)N[C@H](C(=O)N[C@H](C(=O)NCC(=O)N[C@@H](CC(C)C)C(=O)N1CCC[C@H]1C(=O)N[C@@H](C)C(=O)N[C@@H](CC(C)C)C(=O)N[C@H](C(=O)N[C@@H](CO)C(=O)N[C@@H](Cc1c[nH]c2ccccc12)C(=O)N[C@H](C(=O)N[C@@H](CCCCN)C(=O)N[C@@H](CCCNC(=N)N)C(=O)N[C@@H](CCCCN)C(=O)N[C@@H](CCCNC(=N)N)C(=O)N[C@@H](CCC(N)=O)C(=O)N[C@@H](CCC(N)=O)C(N)=O)[C@@H](C)CC)[C@@H](C)CC)[C@@H](C)O)[C@@H](C)O)C(C)C)C(C)C` [Melittin, reference compound], the MBC worked out at 4 µM (≈ 11.4 µg/mL) in [1] (MRSA 544, BHI agar plates, 24 hours at 37°C, minimum concentration at which 99.9% killed) and 8 µM (≈ 22.8 µg/mL) in data set [2] (MRSA 103, BHI agar plates, 24 hours at 37°C, minimum concentration at which 99.9% killed). Also, the “MBC as multiple of MIC” value in data set [2] (MRSA 103) is reported as 2 × MIC. In addition, the MIC was 4 µM (≈ 11.4 µg/mL) in data set [6] (setting [12]); 4 µM (≈ 11.4 µg/mL) in data set [3] (MRSA 544, twofold serial dilutions 0.125–64 μM, 96-well plates, 37°C, 18 hours, minimum of three times in sets of three); 4 µM (≈ 11.4 µg/mL) in data set [4] (MRSA 103, twofold serial dilutions 0.125–64 μM, 96-well plates, 37°C, 18 hours, minimum of three times in sets of three).

Consider `N=C(N)NCCC[C@H](NC(=O)CNC(=O)[C@H](CO)NC(=O)CNC(=O)[C@H](CCCNC(=N)N)NC(=O)[C@H](CCCNC(=N)N)NC(=O)[C@H](CCCNC(=N)N)NC(=O)[C@H](Cc1c[nH]c2ccccc12)NC(=O)[C@H](Cc1c[nH]c2ccccc12)NC(=O)[C@@H](N)Cc1c[nH]c2ccccc12)C(=O)N[C@@H](CCCNC(=N)N)C(=O)N[C@@H](CCCNC(=N)N)C(=O)N[C@@H](Cc1c[nH]c2ccccc12)C(=O)N[C@@H](Cc1c[nH]c2ccccc12)C(=O)N[C@@H](Cc1c[nH]c2ccccc12)C(N)=O` [W5] (H-WWWRRRGSGRRRWWW-NH2), for which the MIC in data set [7] worked out at 2 µM (≈ 4.55 µg/mL); in data set [6] (setting [12]), 8 µM (≈ 18.2 µg/mL); in data set [3] (544, 18 h), 8 µM (≈ 18.2 µg/mL); in data set [4] (103, 18 h) it was 8 µM (≈ 18.2 µg/mL). Also, in [8], the “HE staining of liver and kidney” value is “no hepatotoxicity or nephrotoxicity”. Besides, the MBC was determined as 8 µM (≈ 18.2 µg/mL) in [1] (544, 24 h); 8 µM (≈ 18.2 µg/mL) in data set [2] (103, 24 h); 8 µM (≈ 18.2 µg/mL) in data set [9].
